Data published in patent US20080200404A1, “Novel Antimalarial 9A-Carbamoyl-Aminoalkyl and 9A-Thiocarbamoyl-Aminoalkyl Azalides” (priority 2005, published 2008).
≈ marks a conversion by molar mass, not a printed value.

Tests used:
[1] = tested on: Plasmodium falciparum TM91C235; assay: In vitro antimalarial [3H]-hypoxanthine incorporation assay, TM91C235; assay type: cell-based; conditions: Plasmodium falciparum; P. falciparum TM91C235 (multiple drug resistant isolate), 72 hours exposure
Text: (§1) The in vitro screens for intrinsic antimalarial activity were based on modifications of the procedures described by Desjardins R E, Canfield C J, Haynes J D, Chulay J D. (Quantitative assessment of antimalarial activity in vitro by a semiautomated microdilution technique. Antimicrob Agents Chemother. 1979 December; 16(6):710-8.), Chulay J D, Haynes J D, Diggs C L. (Plasmodium falciparum: Assessment of in vitro growth by [3H]hypoxanthine incorporation. Exp. Parasitol. 1983 55:138-146.), and Milhous W K, Weatherly N F, Bowdre J H, Desjardins R E. (In vitro activities of and mechanisms of resistance to antifol antimalarial drugs. Antimicrob Agents Chemother. 1985 April; 27(4):525-30.). The system was limited to the assessment of the intrinsic activity against the erythrocytic asexual life cycle (blood schizontocides). Two Plasmodium falciparum clones from CDC/Indochina III (W-2) and CDC/Sierra Leone I (D-6) (Oduola A M, Weatherly N F, Bowdre J H, Desjardins R E. Plasmodium falciparum: cloning by single-erythrocyte micromanipulation and heterogeneity in vitro. Exp Parasitol. 1988 66(1):86-95.) were used for all assays. TM91C235, a multiple drug resistant isolate from Thailand, was used for the prescreening assay. W-2 is resistant to chloroquine, quinine, and pyrimethamine and susceptible to mefloquine. D-6 tends to be more resistant to mefloquine and susceptible to chloroquine, quinine, and pyrimethamine. All documents cited in this paragraph are incorporated by reference in their entirety.
(§2) All parasites were maintained in continuous long term cultures in RPMI-1640 medium supplemented with 6% washed human A positive (A+)(erythrocytes, 25 mM Hepes, […], and 10% heat inactivated A+human plasma or ALBUMAX® (lipid-rich bovine serum albumin; Invitrogen, Carlsbad, Calif.). All cultures and assays were conducted at 37° C. under an atmosphere of 5% CO2 and 5% O2, with a balance of N2.
The prescreening assay uses TM91C235 diluted at a 0.4% parasitemia in a 1% hematocrit in folic acid free and p-aminobenzoic acid free media RPMI-1640 and ALBUMAX®. One mg of the compound is typically dissolved in 100 μl of dimethyl sulfoxide (DMSO). The compound is further diluted in culture medium (FF) with ALBUMAX® for the first initial starting concentration. The rest of the stock drug solution was kept at −70° C. The isolate was preexposed, in duplicate, at three concentrations (25,000 ng/ml, 2,500 ng/ml, and 25 ng/ml) of the test compound for 48 hr in a 96-well microtiter plate (MTP) using the BIOMEK® 2000 automated laboratory workstation. Each MTP contains chloroquine as control to assess the relative activity of the compound and to monitor the response of TM91C235.
(§3) After the preincubation, [^3H]-hypoxanthine was added to each well of the MTP. (The assay relies on the incorporation of radiolabeled hypoxanthine by the parasites, which indicates reproduction, and inhibition of isotope incorporation was attributed to activity of known or candidate antimalarial drugs). After 72 hr of total incubation time, the MTP were frozen to lyse the erythrocytes and parasites. The parasite DNA was recovered by harvesting the lysate onto glass-fiber filter plates using a Packard FilterMate™ Cell Harvester. The radioactivity was counted on a Packard TopCount™ microplate scintillation counter. The results were recorded as counts per minutes (CPM) per well at each drug concentration divided by the arithmetic mean of the CPM from the three untreated infection parasite control wells.
The serial dilution assay was conducted using the same assay conditions and stock solution of the compound used for the preliminary screen, described above. Both the D-6 and the W-2 clones were used. The compounds were diluted two-fold over 11 different concentration ranges with a starting concentration that was based on the preliminary screen. […]

[2] = tested on: Plasmodium falciparum clone CDC/Sierra Leone I (D-6); assay: In vitro antimalarial [3H]-hypoxanthine incorporation serial dilution assay, D6; assay type: cell-based; conditions: Plasmodium falciparum, D6, 72 h, P. falciparum D6, 72 hours exposure; read-out: IC50 D6
Text: as §1, §2, §3
The serial dilution assay was conducted using the same assay conditions and stock solution of the compound used for the preliminary screen, described above. Both the D-6 and the W-2 clones were used. The compounds were diluted two-fold over 11 different concentration ranges with a starting concentration that was based on the preliminary screen. For each drug, the concentration response profile was determined and 50% inhibitory concentrations (IC50) were determined by using a non-linear, logistic dose response analysis program. […] For each assay, the IC50 for each clone was determined against the known antimalarials chloroquine and mefloquine. These control values established the compound's relative parasite susceptibility profile compared to known antimalarials. […]
The in vitro potency of the compounds has been compared with that of azithromycin to better gauge compounds suitable for further testing. As described above, parasites were exposed for 72 hours. Data from the in vitro potency tests of azithromycin against the three parasite strains have been averaged, and these numbers have been used for identification of “active” macrolide compounds.

Row | Compound | IC50 [1] | IC50 [2]
1 | CC[C@H]1OC(=O)[C@H](C)[C@@H](O[C@H]2C[C@@](C)(OC)[C@@H](O)[C@H](C)O2)[C@H](C)[C@@H](O[C@@H]2O[C@H](C)C[C@H](N(C)C)[C@H]2O)[C@](C)(O)C[C@@H](C)CN(CCCNC(=O)NCC2CCCCC2)[C@H](C)[C@@H](O)[C@]1(C)O [Example 74] | 0.133 µg/mL (≈ 0.142 µM) | 0.568 µg/mL (≈ 0.609 µM)
2 | CC[C@H]1OC(=O)[C@H](C)[C@@H](O[C@H]2C[C@@](C)(OC)[C@@H](O)[C@H](C)O2)[C@H](C)[C@@H](O[C@@H]2O[C@H](C)C[C@H](N(C)C)[C@H]2O)[C@](C)(O)C[C@@H](C)CN(CCCNC(=S)NC2CCCCCCCCCCC2)[C@H](C)[C@@H](O)[C@]1(C)O.O=CO [Example 116] | 0.149 µg/mL | 0.281 µg/mL
3 | CC[C@H]1OC(=O)[C@H](C)[C@@H](O[C@H]2C[C@@](C)(OC)[C@@H](O)[C@H](C)O2)[C@H](C)[C@@H](O[C@@H]2O[C@H](C)C[C@H](N(C)C)[C@H]2O)[C@](C)(O)C[C@@H](C)CN(CCCNC(=S)Nc2ccc(/N=N/c3ccccc3)cc2)[C@H](C)[C@@H](O)[C@]1(C)O [Example 118] | 0.0993 µg/mL (≈ 0.0963 µM) | 0.111 µg/mL (≈ 0.107 µM)
4 | CC[C@H]1OC(=O)[C@H](C)[C@@H](O[C@H]2C[C@@](C)(OC)[C@@H](O)[C@H](C)O2)[C@H](C)[C@@H](O[C@@H]2O[C@H](C)C[C@H](N(C)C)[C@H]2O)[C@](C)(O)C[C@@H](C)CN(CCCNC(=S)NC(c2ccccc2)c2ccccc2)[C@H](C)[C@@H](O)[C@]1(C)O [Example 129] | 0.056 µg/mL (≈ 0.055 µM) | 0.222 µg/mL (≈ 0.218 µM)
5 | CCOC(=O)CCN(CCCN1C[C@H](C)C[C@@](C)(O)[C@H](O[C@@H]2O[C@H](C)C[C@H](N(C)C)[C@H]2O)[C@@H](C)[C@H](O[C@H]2C[C@@](C)(OC)[C@@H](O)[C@H](C)O2)[C@@H](C)C(=O)O[C@H](CC)[C@@](C)(O)[C@H](O)[C@H]1C)C(=S)NCCc1ccccc1 [Example 160, 9-Deoxo-9-dihydro-9a-{N′-[β-(ethoxycarbonyl)ethyl]-N′-[β-(phenylethyl)thiocarbamoyl]-γ-aminopropyl}-9a-aza-9a-homoerythromycin A] | 0.0683 µg/mL (≈ 0.0647 µM) | 0.153 µg/mL (≈ 0.145 µM)
6 | CCOC(=O)CCN(CCCN1C[C@H](C)C[C@@](C)(O)[C@H](O[C@@H]2O[C@H](C)C[C@H](N(C)C)[C@H]2O)[C@@H](C)[C@H](O[C@H]2C[C@@](C)(OC)[C@@H](O)[C@H](C)O2)[C@@H](C)C(=O)O[C@H](CC)[C@@](C)(O)[C@H](O)[C@H]1C)C(=S)NCCCc1ccccc1 [Example 161, 9-Deoxo-9-dihydro-9a-{N′-[β-(ethoxycarbonyl)ethyl]-N′-[γ-(phenylpropyl)thiocarbamoyl]-γ-aminopropyl}-9a-aza-9a-homoerythromycin A] | 0.054 µg/mL (≈ 0.0505 µM) | 0.142 µg/mL (≈ 0.132 µM)
7 | CCOC(=O)CCN(CCCN1C[C@H](C)C[C@@](C)(O)[C@H](O[C@@H]2O[C@H](C)C[C@H](N(C)C)[C@H]2O)[C@@H](C)[C@H](O[C@H]2C[C@@](C)(OC)[C@@H](O)[C@H](C)O2)[C@@H](C)C(=O)O[C@H](CC)[C@@](C)(O)[C@H](O)[C@H]1C)C(=S)NCc1ccccc1 [Example 162, 9-Deoxo-9-dihydro-9a-{N′-[β-(ethoxycarbonyl)ethyl]-N′-benzylthiocarbamoyl-γ-aminopropyl]-9a-aza-9a-homoerythromycin A] | 0.0693 µg/mL (≈ 0.0665 µM) | 0.104 µg/mL (≈ 0.1 µM)
8 | CCOC(=O)CCN(CCCN1C[C@H](C)C[C@@](C)(O)[C@H](O[C@@H]2O[C@H](C)C[C@H](N(C)C)[C@H]2O)[C@@H](C)[C@H](O[C@H]2C[C@@](C)(OC)[C@@H](O)[C@H](C)O2)[C@@H](C)C(=O)O[C@H](CC)[C@@](C)(O)[C@H](O)[C@H]1C)C(=O)NC(C)c1cccc2ccccc12 (stereo partly shown) [Example 163] | 0.0679 µg/mL (≈ 0.0623 µM) | 0.135 µg/mL (≈ 0.124 µM)

Continued, values first:

Row | IC50 [1] | IC50 [2] | Compound
9 | 0.131 µg/mL (≈ 0.137 µM) | 0.318 µg/mL (≈ 0.332 µM) | CC[C@H]1OC(=O)[C@H](C)[C@@H](O[C@H]2C[C@@](C)(OC)[C@@H](O)[C@H](C)O2)[C@H](C)[C@@H](O[C@@H]2O[C@H](C)C[C@H](N(C)C)[C@H]2O)[C@](C)(O)C[C@@H](C)CN(CCCNC(=O)Nc2cccc(SC)c2)[C@H](C)[C@@H](O)[C@]1(C)O [Example 71]
10 | 0.422 µg/mL (≈ 0.411 µM) | 0.665 µg/mL (≈ 0.648 µM) | CC[C@H]1OC(=O)[C@H](C)[C@@H](O[C@H]2C[C@@](C)(OC)[C@@H](O)[C@H](C)O2)[C@H](C)[C@@H](O[C@@H]2O[C@H](C)C[C@H](N(C)C)[C@H]2O)[C@](C)(O)C[C@@H](C)CN(CCCNC(=O)Nc2cc(C(=O)OC)cc(C(=O)OC)c2)[C@H](C)[C@@H](O)[C@]1(C)O [Example 72]
11 | 0.128 µg/mL (≈ 0.139 µM) | 0.305 µg/mL (≈ 0.33 µM) | CC[C@H]1OC(=O)[C@H](C)[C@@H](O[C@H]2C[C@@](C)(OC)[C@@H](O)[C@H](C)O2)[C@H](C)[C@@H](O[C@@H]2O[C@H](C)C[C@H](N(C)C)[C@H]2O)[C@](C)(O)C[C@@H](C)CN(CCCNC(=O)Nc2ccc(C)cc2)[C@H](C)[C@@H](O)[C@]1(C)O [Example 73]
12 | 0.229 µg/mL | 0.479 µg/mL | CC[C@H]1OC(=O)[C@H](C)[C@@H](O[C@H]2C[C@@](C)(OC)[C@@H](O)[C@H](C)O2)[C@H](C)[C@@H](O[C@@H]2O[C@H](C)C[C@H](N(C)C)[C@H]2O)[C@](C)(O)C[C@@H](C)CN(CCCNC(=O)Nc2ccc(C)cc2C)[C@H](C)[C@@H](O)[C@]1(C)O.O=CO [Example 75]
13 | 0.126 µg/mL | 0.298 µg/mL | CC[C@H]1OC(=O)[C@H](C)[C@@H](O[C@H]2C[C@@](C)(OC)[C@@H](O)[C@H](C)O2)[C@H](C)[C@@H](O[C@@H]2O[C@H](C)C[C@H](N(C)C)[C@H]2O)[C@](C)(O)C[C@@H](C)CN(CCCNC(=O)Nc2ccc(F)c(F)c2)[C@H](C)[C@@H](O)[C@]1(C)O.O=CO [Example 76]
14 | 0.0896 µg/mL | 0.186 µg/mL | CC[C@H]1OC(=O)[C@H](C)[C@@H](O[C@H]2C[C@@](C)(OC)[C@@H](O)[C@H](C)O2)[C@H](C)[C@@H](O[C@@H]2O[C@H](C)C[C@H](N(C)C)[C@H]2O)[C@](C)(O)C[C@@H](C)CN(CCCNC(=O)Nc2ccc(Cl)cc2)[C@H](C)[C@@H](O)[C@]1(C)O.O=CO [Example 77]
15 | 0.182 µg/mL | 0.267 µg/mL | CC[C@H]1OC(=O)[C@H](C)[C@@H](O[C@H]2C[C@@](C)(OC)[C@@H](O)[C@H](C)O2)[C@H](C)[C@@H](O[C@@H]2O[C@H](C)C[C@H](N(C)C)[C@H]2O)[C@](C)(O)C[C@@H](C)CN(CCCNC(=O)NC(C)(C)CC(C)(C)C)[C@H](C)[C@@H](O)[C@]1(C)O.O=CO [Example 78]
16 | 0.172 µg/mL | 0.269 µg/mL | CC[C@H]1OC(=O)[C@H](C)[C@@H](O[C@H]2C[C@@](C)(OC)[C@@H](O)[C@H](C)O2)[C@H](C)[C@@H](O[C@@H]2O[C@H](C)C[C@H](N(C)C)[C@H]2O)[C@](C)(O)C[C@@H](C)CN(CCCNC(=S)Nc2ccc(OCc3ccccc3)cc2)[C@H](C)[C@@H](O)[C@]1(C)O.O=CO [Example 115]
17 | 0.223 µg/mL | 0.329 µg/mL | CC[C@H]1OC(=O)[C@H](C)[C@@H](O[C@H]2C[C@@](C)(OC)[C@@H](O)[C@H](C)O2)[C@H](C)[C@@H](O[C@@H]2O[C@H](C)C[C@H](N(C)C)[C@H]2O)[C@](C)(O)C[C@@H](C)CN(CCCNC(=S)NCc2ccc3c(c2)CCC3)[C@H](C)[C@@H](O)[C@]1(C)O.O=CO [Example 117]
